Where only a bound is given, the exact number is not on record here.

Common to all, as to test: filter binding kinase assay
Common to all, as to format: biochemical

One assay deals with T1, MELK (Homo sapiens, UniProt Q14680).
T1 construct: purchased
To be noted: derived from % inhibition at 1 μM. Put shortly:
(§1)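 Radioactivity retained on P81 phosphocellulose filters is the read-out. Before the reaction begins, test substance sits with kinase and substrate for 5 minutes at room temperature. The ATP solution added is 5, 20 or 50 […] according to the kinase, and acid quench ends the reaction.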

Another assay has as its target T2, CAMKK2 (Homo sapiens, UniProt Q96RR4).
T2 construct: purchased
To be noted: derived from % inhibition at 1 μM. Summed up: as §1

A further assay has as its target T3, SGK (Homo sapiens, UniProt O00141).
T3 construct: purchased
T3 sequence (O00141 1-431): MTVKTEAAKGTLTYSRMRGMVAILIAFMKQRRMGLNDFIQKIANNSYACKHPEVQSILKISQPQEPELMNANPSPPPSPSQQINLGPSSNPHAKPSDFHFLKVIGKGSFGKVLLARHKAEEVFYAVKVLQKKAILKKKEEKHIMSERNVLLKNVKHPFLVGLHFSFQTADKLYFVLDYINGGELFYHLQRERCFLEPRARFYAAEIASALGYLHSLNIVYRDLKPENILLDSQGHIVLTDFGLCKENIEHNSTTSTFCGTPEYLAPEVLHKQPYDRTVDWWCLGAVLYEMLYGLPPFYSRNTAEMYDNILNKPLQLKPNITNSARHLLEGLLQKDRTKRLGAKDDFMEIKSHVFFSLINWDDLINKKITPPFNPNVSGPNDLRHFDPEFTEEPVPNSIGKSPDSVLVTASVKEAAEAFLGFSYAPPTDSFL
To be noted: derived from % inhibition at 1 μM. Put shortly:
as §1

A further assay addresses T4, PAK2 (Homo sapiens, UniProt Q13177).
T4 construct: purchased
To be noted: derived from % inhibition at 1 μM. Put shortly:
as §1

Another assay concerns the target T5, HIPK1 (Homo sapiens, UniProt Q86Z02).
T5 construct: purchased
To be noted: for IC50: derived from % inhibition at 1 μM; for remaining activity at 1 µM: read-out: residual kinase activity HIPK1. Summed up:
as §1

Another assay deals with T6, STK11 (Homo sapiens, UniProt Q15831).
T6 construct: purchased
T6 sequence (Q15831 1-433): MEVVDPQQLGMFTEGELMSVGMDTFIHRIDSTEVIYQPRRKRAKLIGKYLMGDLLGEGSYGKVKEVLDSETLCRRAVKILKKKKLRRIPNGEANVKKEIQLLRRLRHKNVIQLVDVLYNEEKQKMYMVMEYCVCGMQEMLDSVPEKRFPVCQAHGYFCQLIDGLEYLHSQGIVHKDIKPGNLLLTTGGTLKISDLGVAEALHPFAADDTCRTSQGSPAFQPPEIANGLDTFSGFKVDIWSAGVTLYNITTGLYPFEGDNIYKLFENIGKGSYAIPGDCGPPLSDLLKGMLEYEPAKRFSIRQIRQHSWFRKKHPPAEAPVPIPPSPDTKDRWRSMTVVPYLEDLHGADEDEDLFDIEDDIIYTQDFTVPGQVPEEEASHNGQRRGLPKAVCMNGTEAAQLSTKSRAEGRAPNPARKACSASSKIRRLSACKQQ
T6 sequence (Q7RTN6 1-431 partner): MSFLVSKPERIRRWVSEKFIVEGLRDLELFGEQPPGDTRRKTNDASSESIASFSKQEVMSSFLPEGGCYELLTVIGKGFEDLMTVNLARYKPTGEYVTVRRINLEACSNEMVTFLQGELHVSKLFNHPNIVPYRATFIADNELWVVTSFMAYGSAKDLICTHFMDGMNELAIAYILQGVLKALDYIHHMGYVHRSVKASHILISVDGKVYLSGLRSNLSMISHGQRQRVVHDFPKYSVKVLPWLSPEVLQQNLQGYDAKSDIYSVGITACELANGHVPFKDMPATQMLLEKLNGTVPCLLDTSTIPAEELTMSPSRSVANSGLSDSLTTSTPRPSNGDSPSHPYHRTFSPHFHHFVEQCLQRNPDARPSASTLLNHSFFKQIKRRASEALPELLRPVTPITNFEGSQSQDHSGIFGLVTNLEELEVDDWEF
T6 sequence (Q9Y376 1-341 partner): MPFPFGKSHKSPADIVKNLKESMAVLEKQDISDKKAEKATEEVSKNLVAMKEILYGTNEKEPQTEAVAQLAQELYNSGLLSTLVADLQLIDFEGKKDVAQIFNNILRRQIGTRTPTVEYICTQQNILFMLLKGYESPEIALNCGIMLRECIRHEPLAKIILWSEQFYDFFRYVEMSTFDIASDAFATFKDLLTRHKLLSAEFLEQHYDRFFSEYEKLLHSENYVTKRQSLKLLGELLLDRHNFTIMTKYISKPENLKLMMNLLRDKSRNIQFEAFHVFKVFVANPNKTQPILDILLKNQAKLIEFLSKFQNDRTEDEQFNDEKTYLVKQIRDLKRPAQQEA
The settings on record: derived from % inhibition at 1 μM. Summed up: as §1

The next assay deals with T7, PIM3 (Homo sapiens, UniProt Q86V86).
T7 construct: purchased
To be noted: derived from % inhibition at 1 μM. Put shortly: as §1

The next assay deals with T8, INSR (Homo sapiens, UniProt P06213).
T8 construct: purchased
The settings on record: derived from % inhibition at 1 μM. Summed up: as §1

The target of the next assay is T9, PKN2 (PRK2) (Homo sapiens, UniProt Q16513).
T9 construct: purchased
The settings on record: for IC50: derived from % inhibition at 1 μM. Put shortly:
as §1

The target of another assay is T10, SRC (Homo sapiens, UniProt P12931).
T10 construct: purchased
The settings on record: derived from % inhibition at 1 μM. Summed up:
as §1

A further assay addresses T11, ERBB4 (Homo sapiens, UniProt Q15303).
T11 construct: purchased
To be noted: derived from % inhibition at 1 μM. Put shortly:
as §1

T1 sequence (Q14680 whole entry, species assumed): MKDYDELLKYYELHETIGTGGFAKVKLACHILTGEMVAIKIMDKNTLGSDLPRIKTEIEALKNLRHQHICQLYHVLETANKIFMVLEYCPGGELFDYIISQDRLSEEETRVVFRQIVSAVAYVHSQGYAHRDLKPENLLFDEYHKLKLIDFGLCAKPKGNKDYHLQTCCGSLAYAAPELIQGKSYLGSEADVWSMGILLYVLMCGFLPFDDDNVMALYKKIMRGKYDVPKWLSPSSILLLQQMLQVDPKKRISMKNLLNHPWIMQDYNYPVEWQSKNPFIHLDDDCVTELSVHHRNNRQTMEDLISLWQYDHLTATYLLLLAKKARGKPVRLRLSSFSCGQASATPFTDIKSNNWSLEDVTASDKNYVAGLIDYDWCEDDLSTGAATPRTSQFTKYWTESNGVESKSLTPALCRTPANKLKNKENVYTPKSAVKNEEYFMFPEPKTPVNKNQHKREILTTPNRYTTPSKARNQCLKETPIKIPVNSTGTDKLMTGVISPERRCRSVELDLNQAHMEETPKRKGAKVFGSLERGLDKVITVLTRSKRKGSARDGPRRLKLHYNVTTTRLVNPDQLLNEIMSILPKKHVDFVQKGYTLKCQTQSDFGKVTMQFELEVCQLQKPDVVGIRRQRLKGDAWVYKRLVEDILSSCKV
T2 sequence (Q96RR4 whole entry, species assumed): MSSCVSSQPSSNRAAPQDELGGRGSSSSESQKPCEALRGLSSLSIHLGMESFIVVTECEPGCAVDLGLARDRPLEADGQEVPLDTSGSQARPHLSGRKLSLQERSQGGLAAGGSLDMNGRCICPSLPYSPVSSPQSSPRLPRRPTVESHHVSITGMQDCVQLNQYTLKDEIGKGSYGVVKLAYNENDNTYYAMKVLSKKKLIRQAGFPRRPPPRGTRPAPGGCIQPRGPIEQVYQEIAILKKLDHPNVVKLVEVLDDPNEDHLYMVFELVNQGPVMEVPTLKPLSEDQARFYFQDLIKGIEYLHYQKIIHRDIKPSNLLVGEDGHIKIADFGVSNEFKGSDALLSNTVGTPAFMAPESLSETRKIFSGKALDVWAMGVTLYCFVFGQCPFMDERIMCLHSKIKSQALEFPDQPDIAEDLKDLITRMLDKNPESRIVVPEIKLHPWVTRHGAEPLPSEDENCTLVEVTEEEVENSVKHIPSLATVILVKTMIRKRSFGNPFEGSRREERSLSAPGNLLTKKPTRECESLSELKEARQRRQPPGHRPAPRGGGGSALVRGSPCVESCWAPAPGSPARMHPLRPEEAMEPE
T4 sequence (Q13177 whole entry, species assumed): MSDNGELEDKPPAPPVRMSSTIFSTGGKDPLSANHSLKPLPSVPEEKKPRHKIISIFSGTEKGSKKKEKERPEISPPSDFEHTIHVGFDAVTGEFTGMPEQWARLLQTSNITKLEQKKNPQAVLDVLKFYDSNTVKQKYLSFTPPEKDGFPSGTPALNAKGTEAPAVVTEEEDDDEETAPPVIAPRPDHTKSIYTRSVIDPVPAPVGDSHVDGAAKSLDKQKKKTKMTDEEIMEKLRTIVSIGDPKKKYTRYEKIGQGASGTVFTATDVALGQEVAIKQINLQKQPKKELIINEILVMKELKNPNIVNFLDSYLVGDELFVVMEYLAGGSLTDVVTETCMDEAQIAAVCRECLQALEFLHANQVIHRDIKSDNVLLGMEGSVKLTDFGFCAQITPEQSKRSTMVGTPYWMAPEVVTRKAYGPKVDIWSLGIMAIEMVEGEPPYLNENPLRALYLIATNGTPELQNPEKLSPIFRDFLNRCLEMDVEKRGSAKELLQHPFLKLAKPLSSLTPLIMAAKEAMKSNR
T8 sequence (P06213 28-1382, species assumed): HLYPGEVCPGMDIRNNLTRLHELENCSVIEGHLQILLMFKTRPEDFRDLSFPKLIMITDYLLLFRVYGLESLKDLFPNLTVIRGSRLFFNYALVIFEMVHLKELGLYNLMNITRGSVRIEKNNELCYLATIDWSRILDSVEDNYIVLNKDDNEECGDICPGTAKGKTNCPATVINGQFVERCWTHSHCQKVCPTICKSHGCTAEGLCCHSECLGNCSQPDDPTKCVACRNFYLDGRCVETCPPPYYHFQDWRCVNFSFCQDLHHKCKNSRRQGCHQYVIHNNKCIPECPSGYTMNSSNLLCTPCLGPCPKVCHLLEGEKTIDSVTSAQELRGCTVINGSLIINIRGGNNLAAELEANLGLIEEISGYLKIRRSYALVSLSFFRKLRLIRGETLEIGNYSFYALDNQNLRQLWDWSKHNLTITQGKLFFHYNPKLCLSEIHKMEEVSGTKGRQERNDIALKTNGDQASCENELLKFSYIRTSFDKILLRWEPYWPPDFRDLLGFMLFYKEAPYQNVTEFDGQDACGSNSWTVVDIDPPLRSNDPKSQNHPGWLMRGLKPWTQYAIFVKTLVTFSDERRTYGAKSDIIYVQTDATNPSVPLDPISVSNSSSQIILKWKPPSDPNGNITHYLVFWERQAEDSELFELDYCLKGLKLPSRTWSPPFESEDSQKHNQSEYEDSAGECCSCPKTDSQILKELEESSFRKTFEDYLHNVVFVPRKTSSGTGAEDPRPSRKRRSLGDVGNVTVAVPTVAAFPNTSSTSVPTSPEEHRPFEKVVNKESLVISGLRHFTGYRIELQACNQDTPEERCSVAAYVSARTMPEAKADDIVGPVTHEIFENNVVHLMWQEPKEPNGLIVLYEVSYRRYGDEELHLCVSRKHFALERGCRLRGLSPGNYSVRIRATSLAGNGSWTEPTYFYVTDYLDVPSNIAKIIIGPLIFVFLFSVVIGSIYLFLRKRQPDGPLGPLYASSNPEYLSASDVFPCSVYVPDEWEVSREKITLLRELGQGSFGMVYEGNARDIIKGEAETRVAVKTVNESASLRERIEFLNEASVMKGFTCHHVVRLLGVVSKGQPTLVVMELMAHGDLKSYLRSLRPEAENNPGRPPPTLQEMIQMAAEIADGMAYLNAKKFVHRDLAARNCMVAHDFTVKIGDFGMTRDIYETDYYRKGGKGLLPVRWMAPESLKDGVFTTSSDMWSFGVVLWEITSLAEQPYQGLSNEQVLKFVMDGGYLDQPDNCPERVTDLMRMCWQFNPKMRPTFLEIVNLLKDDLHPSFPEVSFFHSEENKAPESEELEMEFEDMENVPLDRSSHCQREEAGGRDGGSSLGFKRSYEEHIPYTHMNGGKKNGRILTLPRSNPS
T11 sequence (Q15303 26-1308, species assumed): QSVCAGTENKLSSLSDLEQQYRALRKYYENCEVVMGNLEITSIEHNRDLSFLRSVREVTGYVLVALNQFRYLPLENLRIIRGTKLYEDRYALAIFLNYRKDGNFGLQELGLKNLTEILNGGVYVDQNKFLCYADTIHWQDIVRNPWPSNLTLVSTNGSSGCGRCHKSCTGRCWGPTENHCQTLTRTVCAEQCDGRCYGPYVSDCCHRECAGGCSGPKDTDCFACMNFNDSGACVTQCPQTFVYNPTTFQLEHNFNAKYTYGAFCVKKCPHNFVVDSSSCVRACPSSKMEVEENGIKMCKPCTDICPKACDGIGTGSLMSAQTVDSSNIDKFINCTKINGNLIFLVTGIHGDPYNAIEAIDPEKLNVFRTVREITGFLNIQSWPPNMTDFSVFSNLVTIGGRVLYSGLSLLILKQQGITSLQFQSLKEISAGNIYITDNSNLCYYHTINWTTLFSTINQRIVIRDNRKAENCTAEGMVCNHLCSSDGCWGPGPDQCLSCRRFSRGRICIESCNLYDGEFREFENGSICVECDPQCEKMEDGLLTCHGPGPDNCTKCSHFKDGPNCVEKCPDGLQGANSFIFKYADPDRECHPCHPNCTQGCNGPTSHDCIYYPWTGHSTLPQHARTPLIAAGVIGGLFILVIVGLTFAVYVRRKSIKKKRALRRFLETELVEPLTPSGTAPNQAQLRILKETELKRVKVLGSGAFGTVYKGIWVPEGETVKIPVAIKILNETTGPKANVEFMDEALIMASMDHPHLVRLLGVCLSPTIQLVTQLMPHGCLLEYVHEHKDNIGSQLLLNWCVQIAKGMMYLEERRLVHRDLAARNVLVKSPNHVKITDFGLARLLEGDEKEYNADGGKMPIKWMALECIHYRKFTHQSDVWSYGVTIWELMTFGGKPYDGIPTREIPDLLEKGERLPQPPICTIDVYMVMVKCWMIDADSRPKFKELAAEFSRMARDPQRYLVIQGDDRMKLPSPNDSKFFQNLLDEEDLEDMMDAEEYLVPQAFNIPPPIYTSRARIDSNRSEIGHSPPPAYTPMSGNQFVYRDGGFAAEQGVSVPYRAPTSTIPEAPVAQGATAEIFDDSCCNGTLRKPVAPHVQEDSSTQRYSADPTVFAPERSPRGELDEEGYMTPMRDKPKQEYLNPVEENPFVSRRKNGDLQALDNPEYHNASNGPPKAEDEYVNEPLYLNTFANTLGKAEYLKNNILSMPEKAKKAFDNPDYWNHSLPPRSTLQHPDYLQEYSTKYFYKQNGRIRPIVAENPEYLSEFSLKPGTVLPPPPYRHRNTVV

As to `Nc1ncsc1C#Cc1cnc2[nH]ccc2c1` [Compound A22, 5-(1H-pyrrolo[2,3-b]pyridin-5-ylethynyl)thiazol-4-ylamine], the IC50 is above 1000 nM at MELK; above 1000 nM at CAMKK2; 1000 to 10000 nM at SGK; above 1000 nM at PAK2; 10 to 1000 nM on HIPK1; above 1000 nM at STK11. The IC50 on PIM3 was 10000 to 100000 nM; on INSR it was 10000 to 100000 nM; at PKN2 (PRK2) it was 10 to 1000 nM; at SRC, 10000 to 100000 nM; at ERBB4, above 1000 nM. Also, the remaining activity at 1 µM came to 36% on HIPK1 and 38% at PKN2 (PRK2) (read-out: residual kinase activity PRK2).

As for `CC(C)(C)OC(=O)Nc1ncsc1C#CCN1C(=O)c2ccccc2C1=O` [Compound A26, tert-butyl{5-[3-(1,3-dioxo-1,3-dihydroisoindol-2-yl)prop-1-ynyl]-thiazol-4-yl}carbamate], the IC50 at MELK was above 1000 nM; on CAMKK2, 10000 to 100000 nM; on SGK, 1000 to 10000 nM; on PAK2, above 1000 nM; at HIPK1, above 1000 nM; at STK11, 10000 to 100000 nM. Moreover, the IC50 on PIM3 is above 1000 nM; on INSR, 1000 to 10000 nM; at PKN2 (PRK2) it was 1000 to 10000 nM; at SRC, 10000 to 100000 nM; on ERBB4, above 1000 nM.

For the compound `Nc1ncsc1C#Cc1cccc(O)c1` [Compound A27, 3-(4-aminothiazol-5-ylethynyl)phenol], the IC50 is 1000 to 10000 nM at MELK; 10000 to 100000 nM on CAMKK2; above 1000 nM at SGK; above 1000 nM at PAK2; 1000 to 10000 nM at HIPK1; above 1000 nM on STK11. The IC50 fell in the range of 1000 to 10000 nM on PIM3; 10000 to 100000 nM on INSR; 10000 to 100000 nM on PKN2 (PRK2); 1000 to 10000 nM on SRC; 1000 to 10000 nM on ERBB4.

Take `CC(C)(C)OC(=O)Nc1nc(-c2ccncc2)sc1C#CCN1CCOCC1` [Compound A25, tert-butyl[5-(3-morpholin-4-ylprop-1-ynyl)-2-pyridin-4-ylthiazol-4-yl]-carbamate]: the IC50 at MELK is above 1000 nM; at CAMKK2, above 1000 nM; at SGK, 10000 to 100000 nM; on PAK2, above 1000 nM; at HIPK1 it was 10 to 1000 nM; on STK11 it was above 1000 nM. Further, the IC50 was above 1000 nM at PIM3; above 1000 nM at INSR; above 1000 nM at PKN2 (PRK2); 1000 to 10000 nM at SRC; above 1000 nM on ERBB4. Besides, the remaining activity at 1 µM at HIPK1 was 48%.

For the compound `c1ccc(Cc2c[nH]c3ncsc23)cc1` [Compound A7, 6-benzyl-4H-pyrrolo[2,3-d]thiazole], the IC50 is 1000 to 10000 nM at MELK; 10000 to 100000 nM at CAMKK2; above 1000 nM on SGK; 1000 to 10000 nM on PAK2; above 1000 nM on HIPK1; 10000 to 100000 nM at STK11. Further, the IC50 at PIM3 was 1000 to 10000 nM; at INSR it was above 1000 nM; at PKN2 (PRK2) it was 1000 to 10000 nM; on SRC, 1000 to 10000 nM; on ERBB4 it was 10000 to 100000 nM.

The values are drawn from patent publication US8703961B2, “Thiazole derivatives for the treatment of diseases such as cancer” (Merck Patent GmbH, priority 2009, dated 2014).
